According to PubChem BioAssay (NCI):
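Protocol summary: plate cells (96-well), add compound at 5 concentrations, incubate 48 h, interpolate endpoints linearly. TGI is the concentration that stops growth completely.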

Key:
Test in all cases: NCI tumour cell line growth inhibition, 48 h
786-0 renal = system: 786-0 renal
A498 renal = system: A498 renal
A549 NSCLC = system: A549 NSCLC
ACHN renal = system: ACHN renal
BT-549 breast = system: BT-549 breast
CAKI-1 renal = system: CAKI-1 renal
CCRF-CEM leukemia = system: CCRF-CEM leukemia
COLO 205 colon = system: COLO 205 colon
DU-145 prostate = system: DU-145 prostate
HCC-2998 colon = system: HCC-2998 colon
HCT-116 colon = system: HCT-116 colon
HCT-15 colon = system: HCT-15 colon
HOP-62 NSCLC = system: HOP-62 NSCLC
HOP-92 NSCLC = system: HOP-92 NSCLC
HS 578T breast = system: HS 578T breast
HT29 colon = system: HT29 colon
IGROV1 ovarian = system: IGROV1 ovarian
KM12 colon = system: KM12 colon
M14 melanoma = system: M14 melanoma
MALME-3M melanoma = system: MALME-3M melanoma
MCF7 breast = system: MCF7 breast
MDA-MB-231 breast = system: MDA-MB-231 breast
MDA-MB-435 = system: MDA-MB-435
MDA-N = system: MDA-N
MOLT-4 leukemia = system: MOLT-4 leukemia
NCI-H226 lung = system: NCI-H226 lung
NCI-H23 lung = system: NCI-H23 lung
NCI-H460 lung = system: NCI-H460 lung
NCI-H522 lung = system: NCI-H522 lung
NCI/ADR-RES ovarian = system: NCI/ADR-RES ovarian
OVCAR-3 ovarian = system: OVCAR-3 ovarian
OVCAR-4 ovarian = system: OVCAR-4 ovarian
OVCAR-5 ovarian = system: OVCAR-5 ovarian
OVCAR-8 ovarian = system: OVCAR-8 ovarian
PC-3 prostate = system: PC-3 prostate
RXF 393 renal = system: RXF 393 renal
SF-268 CNS = system: SF-268 CNS
SF-295 CNS = system: SF-295 CNS
SF-539 CNS = system: SF-539 CNS
SK-MEL-2 melanoma = system: SK-MEL-2 melanoma
SK-MEL-28 melanoma = system: SK-MEL-28 melanoma
SK-OV-3 ovarian = system: SK-OV-3 ovarian
SN12C renal = system: SN12C renal
SNB-75 CNS = system: SNB-75 CNS
SR leukemia = system: SR leukemia
SW-620 colon = system: SW-620 colon
T-47D breast = system: T-47D breast
TK-10 renal = system: TK-10 renal
U251 CNS = system: U251 CNS
UACC-257 melanoma = system: UACC-257 melanoma
UACC-62 melanoma = system: UACC-62 melanoma
UO-31 renal = system: UO-31 renal

Measured: TGI

O=C(c1ccco1)C1CC(c2ccc3ccccc3c2O)=NN1c1ccc([N+](=O)[O-])cc1[N+](=O)[O-] (configuration not stated)
23.1 µM: SR leukemia
68.7 µM: MDA-MB-231 breast
11.4 µM: MOLT-4 leukemia
75.4 µM: NCI/ADR-RES ovarian
97.3 µM: SK-MEL-2 melanoma
33.9 µM: NCI-H460 lung
76.1 µM: HOP-92 NSCLC
42.3 µM: HT29 colon
26.2 µM: KM12 colon
89.1 µM: SNB-75 CNS
32 µM: COLO 205 colon
96.9 µM: SK-OV-3 ovarian
47.5 µM: NCI-H522 lung
10.6 µM: CCRF-CEM leukemia
66.6 µM: HS 578T breast
> 100 µM: all other assays above
